Results: patent US20260374739A1, “SMALL MOLECULAR WEIGHT CHEMICAL COMPOUND TO ANTAGONIZE EPH-EPHRIN TETRAMERIZATION AND INHIBIT BIDIRECTIONAL SIGNALING” (THE BOARD OF REGENTS OF THE UNIVERSITY OF TEXAS SYSTEM, priority 2022, published 2026)
“And” between values parts separate entries of the source, which are not always exact repeats. Equal entries are not always repeated. Marks after values point to notes of the source that are not given here.

Experiments:
[1] = molecular target: T1, EphrinB2-EphB4 (Homo sapiens, UniProt P54760); experiment: Octet 80 sec association/500 sec dissociation, immobilized human EphrinB2-Fc binding to soluble human EphB4-His; conditions: immobilized human EphrinB2, 25 nM soluble human EphB4; for EphB4 Inhibition Percent, Inhibition of Association ONLY: at 3.2 μM and 80 seconds; for EphB4 Inhibition Percent, Inhibition of Association-Dissociation: at 3.2 μM and 580 seconds
T1 construct: soluble human EphB1-His, EphB2-His, and EphB4-His ectodomains; commercially available human EphrinB1-Fc (EB1), EphrinB2-Fc (EB2), and EphrinB3-Fc (EB3) ectodomain proteins; purchased
T1 sequence (P54760 16-539 limits assumed): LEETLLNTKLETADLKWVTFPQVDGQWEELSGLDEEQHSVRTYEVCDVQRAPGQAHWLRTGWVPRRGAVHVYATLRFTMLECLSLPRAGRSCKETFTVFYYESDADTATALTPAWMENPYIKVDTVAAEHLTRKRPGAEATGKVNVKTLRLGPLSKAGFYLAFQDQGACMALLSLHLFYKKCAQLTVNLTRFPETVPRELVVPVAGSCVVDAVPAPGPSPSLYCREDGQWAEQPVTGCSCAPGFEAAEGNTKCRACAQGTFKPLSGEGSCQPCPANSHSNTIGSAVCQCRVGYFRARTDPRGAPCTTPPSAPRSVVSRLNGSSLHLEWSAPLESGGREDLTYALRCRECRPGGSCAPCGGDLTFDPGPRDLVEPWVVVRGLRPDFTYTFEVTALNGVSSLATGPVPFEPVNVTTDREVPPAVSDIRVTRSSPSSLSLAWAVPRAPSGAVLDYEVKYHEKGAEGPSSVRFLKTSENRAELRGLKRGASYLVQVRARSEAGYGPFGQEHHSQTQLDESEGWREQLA
Summary of the method: (§1)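 EphrinB2-Fc captured on AHC biosensors, then soluble His-tagged EphB ectodomain (25 nM for % inhibition runs) associated 80 s and dissociated 500 s in PBS, 0.05% Tween-20, 1% DMSO ± compound. Compounds tested at 0.1–3.2 μM with a 10 μM max standard; IC50 from AUC of full traces or at 75 s and 135 s.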

[2] = molecular target: T2, EphrinB2-EphB2 (Homo sapiens, UniProt P29323); experiment: Octet 80 sec association/500 sec dissociation, immobilized human EphrinB2-Fc binding to soluble human EphB2-His; conditions: immobilized human EphrinB2, 25 nM soluble human EphB2; for EphB2 Inhibition Percent, Inhibition of Association ONLY: at 3.2 μM and 80 seconds; for EphB2 Inhibition Percent, Inhibition of Association-Dissociation: at 3.2 μM and 580 seconds
T2 construct: soluble human EphB1-His, EphB2-His, and EphB4-His ectodomains; commercially available human EphrinB1-Fc (EB1), EphrinB2-Fc (EB2), and EphrinB3-Fc (EB3) ectodomain proteins; purchased
T2 sequence (P29323 19-543 limits assumed): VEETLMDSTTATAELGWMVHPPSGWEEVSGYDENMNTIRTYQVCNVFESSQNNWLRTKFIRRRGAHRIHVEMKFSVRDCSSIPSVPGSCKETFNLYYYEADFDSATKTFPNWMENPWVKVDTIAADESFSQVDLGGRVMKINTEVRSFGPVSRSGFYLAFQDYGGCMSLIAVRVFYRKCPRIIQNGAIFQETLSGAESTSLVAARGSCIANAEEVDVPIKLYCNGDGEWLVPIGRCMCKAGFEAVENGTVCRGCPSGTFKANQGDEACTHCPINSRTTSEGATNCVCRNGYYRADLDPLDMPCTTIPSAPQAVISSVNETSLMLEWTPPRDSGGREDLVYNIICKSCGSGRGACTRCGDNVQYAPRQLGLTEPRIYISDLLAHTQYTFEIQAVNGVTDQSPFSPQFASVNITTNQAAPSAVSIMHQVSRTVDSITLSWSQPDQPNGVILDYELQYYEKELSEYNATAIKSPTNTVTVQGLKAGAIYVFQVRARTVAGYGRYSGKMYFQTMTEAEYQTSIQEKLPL
Summary of the method: as §1

| Structure (SMILES) | EphB4 Inhibition Percent, Inhibition of Association ONLY [1] | EphB4 Inhibition Percent, Inhibition of Association-Dissociation [1] | EphB2 Inhibition Percent, Inhibition of Association ONLY [2] | EphB2 Inhibition Percent, Inhibition of Association-Dissociation [2] |
| --- | --- | --- | --- | --- |
| Oc1c(Br)cc(CN2CCN(c3ccc(Br)cc3)CC2)c2cccnc12 [Compound 30, 7-bromo-5-((4-(4-bromophenyl)piperazin-1-ium-1-yl)methyl)-8-hydroxyquinolin-1-ium chloride] | 16.6% and 12.5% | 29.3% and 36.4% | 57.7% and 62.5% | 72.9% and 78.7% |
| COCc1cc(CN2CCN(C)CC2)c(O)c2ncccc12 [Compound 77, 5-(methoxymethyl)-7-((4-methylpiperazin-1-yl)methyl)quinolin-8-ol, reference compound] | 0*% | 2.7% | 5.4% | 35.1% |
